How the values were obtained:
[1] = target: T1, Ba/F3 cells EML4-ALK L1196M/G1202R (variant 1) (Homo sapiens, UniProt Q9UM73, G1202R/L1196M); experiment: Ba/F3 cell proliferation assay, EML4-ALK L1196M/G1202R (variant 1); format: cell-based; details: 72 hours, CellTiter-Glo
T1 construct: echinoderm microtubule-associated protein-like 4 (EML4) gene and the ALK tyrosine kinase domain; host or cells: Ba/F3 (RIKEN), retroviral pMSCV-puro; the other entry of the earlier key: EML4 (Q9HC35, Echinoderm microtubule-associated protein-like 4)
Outline: (§1)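 IL-3-independent Ba/F3 monoclones, puromycin-selected, transduced with fusion genes; 1,000 cells/well, 1 day rest, 3-fold compound series, 72 h. Read: CellTiter-Glo luminescence. IC50 from % inhibition vs concentration, 4-parameter logistic.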

Ba/F3 cells TPM3-TRKA = target: T2, Ba/F3 cells TPM3-TRKA (Homo sapiens, UniProt P04629); experiment: Ba/F3 cell proliferation assay, TPM3-TRKA; format: cell-based; details: 72 hours, CellTiter-Glo, read-out: TPM3-NTRK1-wt IC50
T2 construct: host or cells: Ba/F3 (RIKEN), retroviral pMSCV-puro; the other entry of the earlier key: TPM3 (P06753, Tropomyosin alpha-3 chain)
Outline: as §1

ALK L1196M/G1202R = target: T3, ALK L1196M/G1202R (Homo sapiens, UniProt Q9UM73, G1202R/L1196M); experiment: Biochemical kinase assay, ALK L1196M/G1202R kinase domain; details: apparent inhibitory constant, Morrison equation; ATP 2 mM in substrate solution; read-out: ALK-L1196M-G1202R Ki^app
T3 construct: purchased SignalChem A19-12NG
Outline: (§2)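 Compound in DMSO added first, then substrate solution (ATP 2 mM; AQT0101 or AQT0104, 26 μM; pH 7.5 HEPES, 10 mM MgCl2), then kinase solution with enzyme at 0.5–3 nM depending on construct. Kinetic read every 2 min for 120 min at 30° C; Ki^app by Morrison regression.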

[2] = target: T4, Ba/F3 cells CD74-ROS1 G2032R (Homo sapiens, UniProt P08922, G2032R); experiment: Ba/F3 cell proliferation assay, CD74-ROS1 G2032R; format: cell-based; details: 72 hours, CellTiter-Glo
T4 construct: fusion of the C-terminus of ROS1 with the N-terminus of various partner proteins; host or cells: Ba/F3 (RIKEN), retroviral pMSCV-puro; the other entry of the earlier key: CD74 (P04233, HLA class II histocompatibility antigen gamma chain)
Outline: (§3)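 Cells seeded 1 day, then treated with 3-fold compound dilutions for 72 h; viability by CellTiter-Glo luminescence. IC50 from percent inhibition by four-parameter logistic fit.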

[3] = target: T5, Ba/F3 cells CD74-ROS1 wild-type (wt) (Homo sapiens, UniProt P08922); experiment: Ba/F3 cell proliferation assay, CD74-ROS1 wild-type; format: cell-based; details: 72 hours, CellTiter-Glo
T5 construct: fusion of the C-terminus of ROS1 with the N-terminus of various partner proteins; host or cells: Ba/F3 (RIKEN), retroviral pMSCV-puro; the other entry of the earlier key: CD74 (P04233, HLA class II histocompatibility antigen gamma chain)
Outline: as §3

ROS1-wt = target: T6, ROS1-wt (Homo sapiens, UniProt P08922); experiment: Biochemical kinase assay, ROS1-wt kinase domain; details: apparent inhibitory constant, Morrison equation; ATP 2 mM in substrate solution; read-out: ROS1-wt Ki^app
T6 construct: purchased Carna 08-163
Outline: (§4)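 Kinetic read: 485 nm, 2-min intervals, 120 min, 30 °C. Substrate mix — ATP 2 mM, AQT0101 26 μM, HEPES 50 mM pH 7.5, MgCl2 10 mM. Output: Ki^app, Morrison equation.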

TRKA-wt = target: T7, TRKA-wt (Homo sapiens, UniProt P04629); experiment: Biochemical kinase assay, TRKA-wt kinase domain; details: apparent inhibitory constant, Morrison equation; ATP 2 mM in substrate solution; read-out: TRKA-wt Ki^app
T7 construct: or TRKA-wt (1 nM, BPS Bio, 40280) kinase domains in buffer; purchased BPS Bio 40280
Outline: as §2

ALK-wt = target: T8, ALK-wt (Homo sapiens, UniProt Q9UM73); experiment: Biochemical kinase assay, ALK-wt kinase domain; details: apparent inhibitory constant, Morrison equation; ATP 2 mM in substrate solution; read-out: ALK-wt Ki^app
T8 construct: purchased Carna 08-518
Outline: as §2

ROS1-G2032R = target: T9, ROS1-G2032R (Homo sapiens, UniProt P08922, G2032R); experiment: Biochemical kinase assay, ROS1-G2032R kinase domain; details: apparent inhibitory constant, Morrison equation; ATP 2 mM in substrate solution; read-out: ROS1-G2032R Ki^app
T9 construct: purchased SignalChem R14-12BG
Outline: as §4

[4] = tested on: TPM3-NTRK1-wt IC50 / primary target IC50 (e.g. CD74-ROS1-wt); experiment: TRKA selectivity in Ba/F3 cells (TRKA potency divided by primary target potency); format: cell-based; details: for TPM3-NTRK1-wt/CD74-ROS1-G2032R selectivity ratio: TRKA potency / CD74-ROS1-G2032R potency; for TPM3-NTRK1-wt/CD74-ROS1-wt selectivity ratio: TRKA potency / CD74-ROS1-wt potency; for TPM3-NTRK1-wt/EML4-ALK-L1196M-G1202R selectivity ratio: TRKA potency / EML4-ALK-L1196M-G1202R potency; for TPM3-NTRK1-wt/EML4-ALK-wt selectivity ratio: TRKA potency / EML4-ALK-wt potency
Protocol: TRKA selectivity was calculated by dividing a compound's TRKA potency by its primary target potency (e.g. TPM3-NTRK1-wt IC50/CD74-ROS1-wt IC50). Compound selectivity can be interpreted by binning ratio values: bin A for very high selectivity, ratio >30-fold; bin B for high selectivity, ratio >10-fold; bin C for moderate selectivity, ratio ≥1; and bin D for low selectivity, ratio <1. […] (nd=not determined).

[5] = target: T10, Ba/F3 cells EML4-ALK wt (variant 1) (Homo sapiens, UniProt Q9UM73); experiment: Ba/F3 cell proliferation assay, EML4-ALK wt (variant 1); format: cell-based; details: 72 hours, CellTiter-Glo
T10 construct: echinoderm microtubule-associated protein-like 4 (EML4) gene and the ALK tyrosine kinase domain; host or cells: Ba/F3 (RIKEN), retroviral pMSCV-puro; the other entry of the earlier key: EML4 (Q9HC35, Echinoderm microtubule-associated protein-like 4)
Outline: as §1

T7 sequence (P04629 510-781 limits assumed): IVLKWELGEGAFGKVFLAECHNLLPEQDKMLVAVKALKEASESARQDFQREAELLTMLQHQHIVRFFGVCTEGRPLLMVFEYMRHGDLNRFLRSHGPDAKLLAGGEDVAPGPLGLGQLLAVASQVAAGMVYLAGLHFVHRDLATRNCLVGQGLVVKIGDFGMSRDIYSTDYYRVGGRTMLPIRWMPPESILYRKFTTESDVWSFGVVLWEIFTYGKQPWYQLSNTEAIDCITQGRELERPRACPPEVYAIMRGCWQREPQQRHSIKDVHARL
T10 sequence (Q9UM73 with tags, fused parts or gaps): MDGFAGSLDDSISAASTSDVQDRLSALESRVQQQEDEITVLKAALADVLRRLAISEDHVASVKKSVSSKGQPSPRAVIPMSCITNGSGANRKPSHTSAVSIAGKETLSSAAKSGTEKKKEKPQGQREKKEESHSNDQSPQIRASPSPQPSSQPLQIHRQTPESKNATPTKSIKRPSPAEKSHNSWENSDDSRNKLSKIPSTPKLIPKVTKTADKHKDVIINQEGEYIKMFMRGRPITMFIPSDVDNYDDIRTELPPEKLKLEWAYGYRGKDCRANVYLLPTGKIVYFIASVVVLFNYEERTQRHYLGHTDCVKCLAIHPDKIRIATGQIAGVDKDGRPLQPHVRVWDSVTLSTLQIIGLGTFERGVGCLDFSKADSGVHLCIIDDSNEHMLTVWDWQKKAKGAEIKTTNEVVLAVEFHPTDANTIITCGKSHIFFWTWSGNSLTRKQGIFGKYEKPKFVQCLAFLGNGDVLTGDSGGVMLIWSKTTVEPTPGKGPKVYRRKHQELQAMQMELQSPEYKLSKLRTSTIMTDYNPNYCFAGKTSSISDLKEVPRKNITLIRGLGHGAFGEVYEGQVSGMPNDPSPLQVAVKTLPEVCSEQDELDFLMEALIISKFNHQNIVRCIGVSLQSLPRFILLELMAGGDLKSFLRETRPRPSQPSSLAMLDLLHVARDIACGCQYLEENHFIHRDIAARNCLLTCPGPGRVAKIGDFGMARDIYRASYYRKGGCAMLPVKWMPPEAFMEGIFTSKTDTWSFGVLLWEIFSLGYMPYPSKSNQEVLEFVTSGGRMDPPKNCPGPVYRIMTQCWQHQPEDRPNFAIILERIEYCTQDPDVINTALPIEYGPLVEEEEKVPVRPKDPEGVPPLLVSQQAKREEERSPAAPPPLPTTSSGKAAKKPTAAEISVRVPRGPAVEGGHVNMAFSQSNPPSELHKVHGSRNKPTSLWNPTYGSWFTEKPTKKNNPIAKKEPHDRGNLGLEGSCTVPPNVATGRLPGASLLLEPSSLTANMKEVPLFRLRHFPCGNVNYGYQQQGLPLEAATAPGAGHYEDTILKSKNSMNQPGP
T8 sequence (Q9UM73 1116-1392 limits assumed): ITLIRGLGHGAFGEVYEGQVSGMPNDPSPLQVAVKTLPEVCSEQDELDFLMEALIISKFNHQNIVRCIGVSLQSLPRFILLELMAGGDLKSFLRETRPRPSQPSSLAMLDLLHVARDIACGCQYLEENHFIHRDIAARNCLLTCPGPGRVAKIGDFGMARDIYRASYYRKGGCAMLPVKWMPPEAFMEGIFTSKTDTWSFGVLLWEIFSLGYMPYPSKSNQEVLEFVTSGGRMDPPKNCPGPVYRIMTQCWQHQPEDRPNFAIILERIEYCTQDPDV
T4 sequence (P08922 1883-2347 G2032R limits assumed): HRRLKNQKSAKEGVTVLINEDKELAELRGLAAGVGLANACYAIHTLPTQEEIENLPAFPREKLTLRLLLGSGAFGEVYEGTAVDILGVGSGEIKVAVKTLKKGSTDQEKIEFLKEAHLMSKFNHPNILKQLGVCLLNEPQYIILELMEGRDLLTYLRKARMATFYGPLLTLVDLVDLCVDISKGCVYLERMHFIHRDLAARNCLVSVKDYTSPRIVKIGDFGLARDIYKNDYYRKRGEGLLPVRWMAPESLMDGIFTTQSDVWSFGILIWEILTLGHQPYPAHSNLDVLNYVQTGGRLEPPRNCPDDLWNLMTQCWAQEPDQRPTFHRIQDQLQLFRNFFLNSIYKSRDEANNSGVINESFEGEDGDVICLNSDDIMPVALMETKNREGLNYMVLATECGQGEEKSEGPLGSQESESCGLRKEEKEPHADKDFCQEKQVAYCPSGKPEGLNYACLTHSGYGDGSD
T6 sequence (P08922 1945-2222 limits assumed): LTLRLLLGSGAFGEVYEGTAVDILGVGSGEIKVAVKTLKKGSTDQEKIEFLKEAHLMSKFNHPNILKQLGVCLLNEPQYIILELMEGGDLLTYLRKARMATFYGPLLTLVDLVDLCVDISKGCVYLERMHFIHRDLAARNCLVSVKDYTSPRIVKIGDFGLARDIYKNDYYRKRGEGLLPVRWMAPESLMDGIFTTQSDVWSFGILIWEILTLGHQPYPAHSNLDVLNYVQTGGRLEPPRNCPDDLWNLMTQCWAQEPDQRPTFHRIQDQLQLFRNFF
T2 sequence (P04629 510-796 limits assumed): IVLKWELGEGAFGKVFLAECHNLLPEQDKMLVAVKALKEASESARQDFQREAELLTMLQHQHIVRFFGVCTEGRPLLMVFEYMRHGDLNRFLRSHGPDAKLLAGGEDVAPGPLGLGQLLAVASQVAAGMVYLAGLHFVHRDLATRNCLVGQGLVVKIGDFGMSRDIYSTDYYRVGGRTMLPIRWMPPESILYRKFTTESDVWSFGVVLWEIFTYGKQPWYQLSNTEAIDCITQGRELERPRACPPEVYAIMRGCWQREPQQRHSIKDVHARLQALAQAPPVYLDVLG
T9 sequence (P08922 1945-2222 G2032R limits assumed): as the sequence (P08922 1945-2222 limits assumed) above, with G88R counted along it
T5 sequence (P08922 1883-2347 limits assumed): as the sequence (P08922 1883-2347 G2032R limits assumed) above, with R150G counted along it
T1 sequence (Q9UM73 with tags, fused parts or gaps L1196M/G1202R): as the sequence (Q9UM73 with tags, fused parts or gaps) above, with L635M, G641R counted along it
T3 sequence (Q9UM73 1116-1392 L1196M/G1202R limits assumed): as the sequence (Q9UM73 1116-1392 limits assumed) above, with L81M, G87R counted along it

Compound	IC50 [1] [nM]	IC50 (Ba/F3 cells TPM3-TRKA) [nM]	Ki (ALK L1196M/G1202R) [nM]	IC50 [2] [nM]	IC50 [3] [nM]	Ki (ROS1-wt) [nM]	Ki (TRKA-wt) [nM]	Ki (ALK-wt) [nM]	Ki (ROS1-G2032R) [nM]	TPM3-NTRK1-wt/CD74-ROS1-G2032R selectivity ratio [4]	TPM3-NTRK1-wt/CD74-ROS1-wt selectivity ratio [4]	TPM3-NTRK1-wt/EML4-ALK-L1196M-G1202R selectivity ratio [4]	TPM3-NTRK1-wt/EML4-ALK-wt selectivity ratio [4]	IC50 [5] [nM]
CCc1noc2c1-c1cnc(N)c(c1)O[C@H](C)c1cc(F)ccc1-c1nnnn1C2 [Example 58, (19R)-3-ethyl-16-fluoro-19-methyl-5,20-dioxa-4,8,9,10,11,23-hexaazapentacyclo[19.3.1.0^2,^6.0^8,^12.0^13,^18]pentacosa-1(24),2(6),3,9,11,13,15,17,21(25),22-decaen-22-amine]	> 500	50 to 500	50 to 500	50 to 500	0.1 to 50	< 50	50 to 500	< 50	50 to 500	C (bin C for moderate selectivity, ratio ≥1)	A (bin A for very high selectivity, ratio >30-fold)	D (bin D for low selectivity, ratio <1)	C (bin C for moderate selectivity, ratio ≥1)	50 to 500
C[C@H]1Oc2cc(cnc2N)-c2c(cnn2C(F)F)Cn2nccc2-c2ccc(F)cc21 [Example 12, (19R)-3-(difluoromethyl)-16-fluoro-19-methyl-20-oxa-3,4,8,9,23-pentaazapentacyclo[19.3.1.0^2,^6.0^8,^12.0^13,^18]pentacosa-1(24),2(6),4,9,11,13,15,17,21(25),22-decaen-22-amine]	> 500	> 500	50 to 500	0.1 to 50	0.1 to 50	< 50	> 500	< 50	50 to 500	A (bin A for very high selectivity, ratio >30-fold)	A (bin A for very high selectivity, ratio >30-fold)	C (bin C for moderate selectivity, ratio ≥1)	A (bin A for very high selectivity, ratio >30-fold)	50 to 500
Cc1nn(CC2CC2)c2c1Cc1nn(C)nc1-c1ccc(F)cc1[C@@H](C)Oc1cc-2cnc1N [Example 65]	0.1 to 50	> 500	< 50	0.1 to 50	0.1 to 50	< 50	> 500	< 50	< 50	A (bin A for very high selectivity, ratio >30-fold)	A (bin A for very high selectivity, ratio >30-fold)	A (bin A for very high selectivity, ratio >30-fold)	A (bin A for very high selectivity, ratio >30-fold)	0.1 to 50
C[C@H]1Oc2cc(cnc2N)-c2c(C#N)ncn2Cc2ncncc2-c2ccc(F)cc21 [Example 18, (20R)-23-amino-17-fluoro-20-methyl-21-oxa-4,6,9,11,24-pentaazapentacyclo[20.3.1.0^2,^6.0^8,^13.0^14,^19]hexacosa-1(25),2,4,8(13),9,11,14,16,18,22(26),23-undecaene-3-carbonitrile]	> 500	> 500	50 to 500	50 to 500	0.1 to 50	< 50	> 500	< 50	50 to 500	A (bin A for very high selectivity, ratio >30-fold)	A (bin A for very high selectivity, ratio >30-fold)	C (bin C for moderate selectivity, ratio ≥1)	A (bin A for very high selectivity, ratio >30-fold)	50 to 500

Source: patent US12054498B2, “Heteroaromatic macrocyclic ether chemotherapeutic agents” (Nuvalent, Inc., priority 2020, dated 2024)
